This is an account of results in ChEMBL document CHEMBL1201862, “PubChem BioAssay data set” (2004).

Active and inactive are the calls of the source.

System in one data set: not listed separately
The data set is described as follows: viability of HCT116 lacking mutant beta-catenin – cell-based, human colon tumor, dose response (AID 1045).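 Further: HCT116 colon tumor cells with beta catenin knocked out; cells exposed to compound for 60 hours.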 It counts as functional.
Conditions: not given
On to `Cc1ccccc1CN1C(=O)C(O)(CC(=O)c2ccncc2)c2ccccc21` (stereo not given), for which the EC50 was 9.54 µM (active).

As to `CCc1ccc(NC(=O)CSc2nc3cc(C(=O)OC)ccc3c(=O)n2CC2CCCO2)cc1` (stereo not given), the EC50 was 25.2 µM (active).

As to `CC(Sc1nc(-c2ccccc2)cc(C(F)(F)F)n1)C(=O)Nc1ccc2c(c1)OCO2` (stereo not given), the EC50 was 24.6 µM (active).

In the case of `c1csc(-c2nc3nc4ccccc4nc3n2Cc2ccc3c(c2)OCO3)c1`, the EC50 is 45.5 µM (active).

Another data set has as its target T1, Corticotropin-releasing factor receptor 2/Corticotropin-releasing factor-binding protein (Homo sapiens, UniProt P24387+Q13324).
T1 sequence (Q13324 whole entry): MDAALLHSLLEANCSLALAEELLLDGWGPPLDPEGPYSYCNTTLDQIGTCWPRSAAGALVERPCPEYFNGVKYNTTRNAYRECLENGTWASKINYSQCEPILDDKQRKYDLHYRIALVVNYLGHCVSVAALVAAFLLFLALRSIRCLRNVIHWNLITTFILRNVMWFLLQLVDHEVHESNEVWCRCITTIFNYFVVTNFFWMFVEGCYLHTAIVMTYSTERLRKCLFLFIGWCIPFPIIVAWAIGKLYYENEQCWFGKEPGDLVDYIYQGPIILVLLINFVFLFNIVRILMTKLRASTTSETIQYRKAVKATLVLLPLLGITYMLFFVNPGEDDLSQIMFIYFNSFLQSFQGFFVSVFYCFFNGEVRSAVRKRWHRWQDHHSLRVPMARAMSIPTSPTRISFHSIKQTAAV
T1 sequence (P24387 whole entry): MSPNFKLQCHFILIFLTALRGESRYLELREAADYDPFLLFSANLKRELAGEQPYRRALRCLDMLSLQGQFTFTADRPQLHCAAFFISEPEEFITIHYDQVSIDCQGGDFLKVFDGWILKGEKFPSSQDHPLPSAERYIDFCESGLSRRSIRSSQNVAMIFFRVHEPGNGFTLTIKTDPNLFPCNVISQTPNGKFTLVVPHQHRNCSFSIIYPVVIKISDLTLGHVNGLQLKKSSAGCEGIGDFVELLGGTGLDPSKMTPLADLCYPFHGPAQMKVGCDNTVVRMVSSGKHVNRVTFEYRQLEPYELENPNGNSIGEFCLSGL
The data set is described as follows: activators of CRF receptor 2 with binding protein – uHTS hits, confirmation (AID 602473). Type of data set: functional. Conditions: read-out: EC50_Mean.
With `CC(C)Cn1cc(C(=O)N2CCC(C)CC2)c2c3ccccc3n(C)c2c1=O`, the EC50 is > 53 µM (inactive).

For `Cc1ncsc1C(=O)N1CCCC(C(=O)c2ccc3ccccc3c2)C1` (stereo not given), the EC50 is > 53 µM (inactive).

As to `Cc1cccc(C)c1NC(=O)Cc1cccs1`, the EC50 was > 53 µM (inactive).

With `CN(C)CCCNC(=O)C[C@H]1C[C@H](C(=O)N2CCOCC2)[C@@]2(C)c3[nH]c4ccc(Cl)cc4c3CCN2C1=O`, the EC50 is > 53 µM (inactive).

As to `O=c1[nH]c2ccc(Cl)cc2[nH]1`, the EC50 is > 53 µM (inactive).

The target in another data set is Cytochrome P450 2C9 (Homo sapiens, UniProt P11712).
Sequence of Cytochrome P450 2C9 (P11712 whole entry): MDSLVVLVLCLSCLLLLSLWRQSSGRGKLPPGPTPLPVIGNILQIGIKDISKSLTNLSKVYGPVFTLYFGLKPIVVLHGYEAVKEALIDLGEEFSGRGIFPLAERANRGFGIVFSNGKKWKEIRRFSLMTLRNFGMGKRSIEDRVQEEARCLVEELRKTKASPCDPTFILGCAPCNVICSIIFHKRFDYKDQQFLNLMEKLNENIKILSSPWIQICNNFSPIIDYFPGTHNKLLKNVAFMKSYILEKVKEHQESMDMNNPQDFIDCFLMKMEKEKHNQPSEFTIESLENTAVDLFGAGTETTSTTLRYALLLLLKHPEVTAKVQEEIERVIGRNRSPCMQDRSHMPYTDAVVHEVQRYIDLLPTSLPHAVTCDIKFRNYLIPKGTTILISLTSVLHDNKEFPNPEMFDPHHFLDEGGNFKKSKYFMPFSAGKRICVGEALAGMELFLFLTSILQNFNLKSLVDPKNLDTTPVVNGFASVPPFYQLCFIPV
Assay: not given
Conditions: not given
Take `Cc1noc(C)c1-c1cc(NCc2cccnc2)ncn1`: the AC50 (usually the concentration giving half of the maximal activity seen) was “inconclusive”.

On to `CN(C(=O)Cn1nnc(-c2cccc(C(F)(F)F)c2)n1)C1CCCCC1`, for which the AC50 entry was “inconclusive”.

With `COC(=O)c1ccc(Cl)c(NC(=O)c2ccc(-c3ccccc3)cc2)c1`, the AC50 entry was “inconclusive”.

For `Cc1cc(C(=O)N/N=C/c2cccc([N+](=O)[O-])c2)c(C)o1`, the AC50 result is “inconclusive”.

Consider `O=C1COc2ccccc2CN1`, for which the half-maximal activity concentration (AC50) entry was “inconclusive”.

Turning to `CN(CC(=O)Nc1cccc2c1CCCC2)S(=O)(=O)c1ccc(Br)cc1`, the AC50 result is “inconclusive”.

With `CCOC(=O)C(/C=N/c1ncccc1C)=C(/O)OCC`, the AC50 result is “inconclusive”.

For another data set, the target named is T2, Cytochrome P450 1A2 (Homo sapiens, UniProt P05177).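 Further: PubChem cytochrome P450 panel assay, CYP1A2 panel member.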
T2 sequence (P05177 whole entry): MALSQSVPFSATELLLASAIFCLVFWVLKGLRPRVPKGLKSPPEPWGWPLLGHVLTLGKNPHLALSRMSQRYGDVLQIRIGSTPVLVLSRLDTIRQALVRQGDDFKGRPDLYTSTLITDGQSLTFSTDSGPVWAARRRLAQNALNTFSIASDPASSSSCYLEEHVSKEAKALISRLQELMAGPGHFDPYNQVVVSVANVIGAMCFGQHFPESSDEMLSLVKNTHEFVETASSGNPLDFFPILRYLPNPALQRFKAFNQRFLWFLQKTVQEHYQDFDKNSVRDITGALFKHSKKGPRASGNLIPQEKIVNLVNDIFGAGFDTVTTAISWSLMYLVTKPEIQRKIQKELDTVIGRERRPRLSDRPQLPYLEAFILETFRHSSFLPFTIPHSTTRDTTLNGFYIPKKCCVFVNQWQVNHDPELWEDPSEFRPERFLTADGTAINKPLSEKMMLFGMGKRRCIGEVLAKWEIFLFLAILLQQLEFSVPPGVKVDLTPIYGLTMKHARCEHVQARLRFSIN
Assay: not given
Conditions: not given
As to `CN(CC(=O)Nc1cccc2c1CCCC2)S(=O)(=O)c1ccc(Br)cc1`, the AC50 is 10 µM (inconclusive).

System in another data set: not listed separately
In words: Luminescence Cell-Based Dose Confirmation HTS to Identify Inhibitors of Platelet Dense Granule Release. [Related pubchem assays: 1663 (Primary HTS), 1678 (Summary of Project)]. It counts as functional.
Conditions: not given
Consider `CN(C(=O)Cn1nnc(-c2cccc(C(F)(F)F)c2)n1)C1CCCCC1`, for which the EC50 was > 112 µM (not active).

System in the next data set: not listed separately
The data set is described as follows: viability of PTEN-deleted HCT116 cells – cell-based, HCT116 PTEN knockout, dose response (AID 1047).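 Further: HCT116 colon tumor cells with PTEN knocked out; cells exposed to compound for 60 hours before readout; potency for loss of cell viability measured by luminescence.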 Type of data set: functional.
Conditions: not given
Take `Cc1ccccc1CN1C(=O)C(O)(CC(=O)c2ccncc2)c2ccccc21` (stereo not given): the EC50 is 7.98 µM (active).

Consider `CCc1ccc(NC(=O)CSc2nc3cc(C(=O)OC)ccc3c(=O)n2CC2CCCO2)cc1` (stereo not given), for which the EC50 was 27.4 µM (active).

Turning to `CC(Sc1nc(-c2ccccc2)cc(C(F)(F)F)n1)C(=O)Nc1ccc2c(c1)OCO2` (stereo not given), the EC50 was 19.3 µM (active).

In the case of `c1csc(-c2nc3nc4ccccc4nc3n2Cc2ccc3c(c2)OCO3)c1`, the EC50 was 48.7 µM (active).

For a further data set, the target named is T1, Corticotropin-releasing factor receptor 2/Corticotropin-releasing factor-binding protein. In words: Dose Response confirmation of uHTS hits for small molecule antagonists of the CRF-binding protein and CRF-R2 receptor complex. It counts as functional. Conditions: read-out: IC50_Mean.
`CC(C)Cn1cc(C(=O)N2CCC(C)CC2)c2c3ccccc3n(C)c2c1=O`: the IC50 was > 47.1 µM (inactive).

For the compound `Cc1ncsc1C(=O)N1CCCC(C(=O)c2ccc3ccccc3c2)C1` (stereo not given), the IC50 was > 47.1 µM (inactive).

For `Cc1cccc(C)c1NC(=O)Cc1cccs1`, the IC50 was > 47.1 µM (inactive).

On to `CN(C)CCCNC(=O)C[C@H]1C[C@H](C(=O)N2CCOCC2)[C@@]2(C)c3[nH]c4ccc(Cl)cc4c3CCN2C1=O`, for which the IC50 is > 47.1 µM (inactive).

Take `O=c1[nH]c2ccc(Cl)cc2[nH]1`: the IC50 is > 47.1 µM (inactive).

The target of another data set is Cytochrome P450 2C19 (Homo sapiens, UniProt P33261). In words: Cytochrome panel assay with activity outcomes. Panel member name: p450-cyp2c19 Compounds with AC50 equal or less than 10 uM are considered active. It counts as functional. The note with it: read-out: AC50.
Sequence of Cytochrome P450 2C19 (P33261 whole entry): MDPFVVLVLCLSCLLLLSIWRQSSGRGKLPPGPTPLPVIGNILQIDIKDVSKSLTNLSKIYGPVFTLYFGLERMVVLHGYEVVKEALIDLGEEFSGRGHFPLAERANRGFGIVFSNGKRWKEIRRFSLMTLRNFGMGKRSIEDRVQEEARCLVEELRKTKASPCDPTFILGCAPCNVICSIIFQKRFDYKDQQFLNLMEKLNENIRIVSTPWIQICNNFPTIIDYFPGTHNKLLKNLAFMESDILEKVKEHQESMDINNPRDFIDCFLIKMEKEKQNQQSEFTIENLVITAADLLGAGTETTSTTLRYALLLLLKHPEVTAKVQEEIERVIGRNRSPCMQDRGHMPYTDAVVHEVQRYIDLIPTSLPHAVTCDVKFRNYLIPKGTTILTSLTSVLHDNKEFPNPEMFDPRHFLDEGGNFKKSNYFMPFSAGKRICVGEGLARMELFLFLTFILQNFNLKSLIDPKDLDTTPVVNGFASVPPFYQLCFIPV
Consider `Cc1cc(C(=O)N/N=C/c2cccc([N+](=O)[O-])c2)c(C)o1`, for which the AC50 is 22.4 µM (inconclusive).

For a further data set, the target named is Luciferin 4-monooxygenase (Photinus pyralis, UniProt P08659). In words: inhibition of purified Photinus pyralis luciferase – biochemical, luminescence, dose response (AID 1891).
Sequence of Luciferin 4-monooxygenase (P08659 whole entry): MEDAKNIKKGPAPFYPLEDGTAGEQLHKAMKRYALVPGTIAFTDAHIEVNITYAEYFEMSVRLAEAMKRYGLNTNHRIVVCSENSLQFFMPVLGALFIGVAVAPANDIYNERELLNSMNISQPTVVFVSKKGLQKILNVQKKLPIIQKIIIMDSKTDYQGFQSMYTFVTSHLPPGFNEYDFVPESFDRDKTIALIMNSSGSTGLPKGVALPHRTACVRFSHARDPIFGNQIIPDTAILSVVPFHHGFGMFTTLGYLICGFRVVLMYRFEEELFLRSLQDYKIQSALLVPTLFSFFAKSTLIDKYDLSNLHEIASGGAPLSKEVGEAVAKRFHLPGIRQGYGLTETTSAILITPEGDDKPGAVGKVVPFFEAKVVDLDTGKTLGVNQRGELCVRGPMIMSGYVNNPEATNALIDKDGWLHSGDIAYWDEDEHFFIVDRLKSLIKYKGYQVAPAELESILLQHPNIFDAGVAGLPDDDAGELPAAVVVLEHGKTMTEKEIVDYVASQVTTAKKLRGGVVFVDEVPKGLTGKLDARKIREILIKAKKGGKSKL
Conditions: not given
Consider `CN(C(=O)Cn1nnc(-c2cccc(C(F)(F)F)c2)n1)C1CCCCC1`, for which the EC50 is > 112 µM (not active).

In another data set the target is Cytochrome P450 2D6 (Homo sapiens, UniProt P10635).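 Further: CYP2D6 member of a cytochrome P450 panel assay.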
Sequence of Cytochrome P450 2D6 (P10635 whole entry): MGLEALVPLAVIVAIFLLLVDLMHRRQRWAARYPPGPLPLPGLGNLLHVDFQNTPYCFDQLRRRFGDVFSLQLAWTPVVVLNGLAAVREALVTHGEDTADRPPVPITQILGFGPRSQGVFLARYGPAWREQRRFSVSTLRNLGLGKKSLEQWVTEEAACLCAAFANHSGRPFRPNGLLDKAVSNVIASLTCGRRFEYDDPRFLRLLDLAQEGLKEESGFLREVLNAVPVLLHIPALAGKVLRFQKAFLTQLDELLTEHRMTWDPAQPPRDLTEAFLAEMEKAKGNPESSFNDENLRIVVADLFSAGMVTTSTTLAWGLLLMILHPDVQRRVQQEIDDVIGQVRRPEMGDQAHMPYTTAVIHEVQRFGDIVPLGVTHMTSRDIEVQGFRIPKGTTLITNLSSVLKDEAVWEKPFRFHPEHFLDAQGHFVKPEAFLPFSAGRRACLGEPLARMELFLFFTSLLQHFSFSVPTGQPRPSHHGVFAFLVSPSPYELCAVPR
Assay: not given
Conditions: not given
On to `CN(CC(=O)Nc1cccc2c1CCCC2)S(=O)(=O)c1ccc(Br)cc1`, for which the half-maximal activity concentration (AC50) is 3.16 µM (inconclusive).
